# Laboratory results reported in patent US8952024B2, “Herbicidal pyrimidone derivatives” (E I du Pont de Nemours and Company, priority 2009, dated 2015).
# Experiments:
# Assay in all cases: Test B pre-/postemergence plant response
# Type in all cases: in vivo
# [1] = test system: Italian ryegrass (Lolium multiflorum)
# Summary of the method: (§1)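 Pre-em in loam/sand; post-em at 1–4 leaf (2–18 cm) in peat mix. Solvent + surfactant formulation. Greenhouse 13–15 d; visual % control vs untreated, 0–100.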
# [2] = test system: soybean (Glycine max)
# Summary of the method: as §1
# [3] = test system: morningglory (Ipomoea coccinea)
# Summary of the method: as §1
# [4] = test system: wheat (Triticum aestivum)
# Summary of the method: as §1
# [5] = test system: cocklebur (Xanthium strumarium)
# Summary of the method: as §1
# [6] = test system: kochia (Kochia scoparia)
# Summary of the method: as §1
# [7] = test system: woolly cupgrass (Eriochloa villosa)
# Summary of the method: as §1
# [8] = test system: yellow nutsedge (Cyperus esculentus)
# Summary of the method: as §1
# [9] = test system: large crabgrass (Digitaria sanguinalis)
# Summary of the method: as §1
# [10] = test system: velvetleaf (Abutilon theophrasti)
# Summary of the method: as §1
# [11] = test system: bermudagrass (Cynodon dactylon)
# Summary of the method: as §1
# [12] = test system: downy bromegrass (Bromus tectorum)
# Summary of the method: as §1
# [13] = 31 g ai/ha, postemergence, scale 0 to 100, 0 is no effect, 100 is complete control
# [14] = Postemergence, 62 g ai/ha, scale 0 (no effect) to 100 (complete control), 13 to 15 days
# [15] = Postemergence, 125 g ai/ha, visual rating after 13 to 15 days, scale 0 (no effect) to 100 (complete control)
# [16] = Postemergence, 250 g ai/ha, scale 0 to 100 (0 no effect, 100 complete control)
# [17] = Preemergence, 31 g ai/ha, scale 0 to 100 (0 no effect, 100 complete control)
# [18] = Preemergence, 62 g ai/ha, scale 0 to 100 (0 no effect, 100 complete control)
# [19] = Preemergence, 125 g ai/ha, scale 0 to 100, 0 no effect, 100 complete control
# [20] = 250 g ai/ha, Preemergence, 0 to 100 scale
compound,measurement,setting,value
O=C1CCCC(O)=C1C(=O)c1cnc(-c2ccsc2)n(-c2ccccc2)c1=O [Compound 56],"Plant response rating, Ryegrass, Italian",[1]; [13],0
same,"Plant response rating, Ryegrass, Italian",[1]; [14],0
same,"Plant response rating, Ryegrass, Italian",[1]; [15],50
same,"Plant response rating, Ryegrass, Italian",[1]; [16],50
same,"Plant response rating, Ryegrass, Italian",[1]; [17],0
same,"Plant response rating, Ryegrass, Italian",[1]; [18],0
same,"Plant response rating, Ryegrass, Italian",[1]; [19],0
same,"Plant response rating, Soybean",[2]; [13],85
same,"Plant response rating, Soybean",[2]; [14],85
same,"Plant response rating, Soybean",[2]; [15],95
same,"Plant response rating, Soybean",[2]; [16],98
same,"Plant response rating, Soybean",[2]; [17],20
same,"Plant response rating, Soybean",[2]; [19],80
same,"Plant response rating, Morningglory",[3]; [15],100
same,"Plant response rating, Morningglory",[3]; [16],100
same,"Plant response rating, Morningglory",[3]; [17],0
same,"Plant response rating, Morningglory",[3]; [18],0
same,"Plant response rating, Morningglory",[3]; [19],45
same,"Plant response rating, Wheat",[4]; [13],0
same,"Plant response rating, Wheat",[4]; [14],0
same,"Plant response rating, Wheat",[4]; [15],0
same,"Plant response rating, Wheat",[4]; [16],0
same,"Plant response rating, Wheat",[4]; [17],0
same,"Plant response rating, Wheat",[4]; [18],0
same,"Plant response rating, Wheat",[4]; [19],0
same,"Plant response rating, Cocklebur",[5]; [13],5
same,"Plant response rating, Cocklebur",[5]; [20],0
same,"Plant response rating, Cocklebur",[5]; [14],55
same,"Plant response rating, Cocklebur",[5]; [15],75
same,"Plant response rating, Cocklebur",[5]; [16],95
same,"Plant response rating, Cocklebur",[5]; [17],0
same,"Plant response rating, Cocklebur",[5]; [18],0
same,"Plant response rating, Cocklebur",[5]; [19],0
same,"Plant response rating, Kochia",[6]; [13],90
same,"Plant response rating, Kochia",[6]; [14],95
same,"Plant response rating, Kochia",[6]; [15],100
same,"Plant response rating, Kochia",[6]; [16],100
same,"Plant response rating, Cupgrass, Woolly",[7]; [13],15
same,"Plant response rating, Cupgrass, Woolly",[7]; [20],70
same,"Plant response rating, Cupgrass, Woolly",[7]; [14],45
same,"Plant response rating, Cupgrass, Woolly",[7]; [15],65
same,"Plant response rating, Cupgrass, Woolly",[7]; [16],85
same,"Plant response rating, Cupgrass, Woolly",[7]; [17],0
same,"Plant response rating, Cupgrass, Woolly",[7]; [18],20
same,"Plant response rating, Cupgrass, Woolly",[7]; [19],50
same,"Plant response rating, Nutsedge, Yellow",[8]; [13],20
same,"Plant response rating, Nutsedge, Yellow",[8]; [14],70
same,"Plant response rating, Nutsedge, Yellow",[8]; [15],75
same,"Plant response rating, Nutsedge, Yellow",[8]; [16],75
same,"Plant response rating, Nutsedge, Yellow",[8]; [17],20
same,"Plant response rating, Nutsedge, Yellow",[8]; [18],80
same,"Plant response rating, Nutsedge, Yellow",[8]; [19],85
same,"Plant response rating, Crabgrass, Large",[9]; [13],75
same,"Plant response rating, Crabgrass, Large",[9]; [20],98
same,"Plant response rating, Crabgrass, Large",[9]; [14],85
same,"Plant response rating, Crabgrass, Large",[9]; [15],90
same,"Plant response rating, Crabgrass, Large",[9]; [16],95
same,"Plant response rating, Crabgrass, Large",[9]; [17],80
same,"Plant response rating, Crabgrass, Large",[9]; [18],85
same,"Plant response rating, Crabgrass, Large",[9]; [19],98
same,"Plant response rating, Velvetleaf",[10]; [13],85
same,"Plant response rating, Velvetleaf",[10]; [14],90
same,"Plant response rating, Velvetleaf",[10]; [15],98
same,"Plant response rating, Velvetleaf",[10]; [16],98
same,"Plant response rating, Velvetleaf",[10]; [17],85
same,"Plant response rating, Velvetleaf",[10]; [18],90
same,"Plant response rating, Velvetleaf",[10]; [19],98
same,"Plant response rating, Bermudagrass",[11]; [13],75
same,"Plant response rating, Bermudagrass",[11]; [20],100
same,"Plant response rating, Bermudagrass",[11]; [14],85
same,"Plant response rating, Bermudagrass",[11]; [15],100
same,"Plant response rating, Bermudagrass",[11]; [16],100
same,"Plant response rating, Bermudagrass",[11]; [17],98
same,"Plant response rating, Bermudagrass",[11]; [18],100
same,"Plant response rating, Bermudagrass",[11]; [19],100
same,"Plant response rating, Bromegrass, Downy",[12]; [13],35
same,"Plant response rating, Bromegrass, Downy",[12]; [20],5
same,"Plant response rating, Bromegrass, Downy",[12]; [14],45
same,"Plant response rating, Bromegrass, Downy",[12]; [15],50
same,"Plant response rating, Bromegrass, Downy",[12]; [16],60
same,"Plant response rating, Bromegrass, Downy",[12]; [17],0
same,"Plant response rating, Bromegrass, Downy",[12]; [18],0
same,"Plant response rating, Bromegrass, Downy",[12]; [19],0
O=C1CCCC(O)=C1C(=O)c1cnc(-c2ccccc2)n(CC2CCCO2)c1=O (stereo not drawn) [Compound 59],"Plant response rating, Ryegrass, Italian",[1]; [13],5
same,"Plant response rating, Ryegrass, Italian",[1]; [14],50
same,"Plant response rating, Ryegrass, Italian",[1]; [15],70
same,"Plant response rating, Ryegrass, Italian",[1]; [16],80
same,"Plant response rating, Ryegrass, Italian",[1]; [17],0
same,"Plant response rating, Ryegrass, Italian",[1]; [18],0
same,"Plant response rating, Ryegrass, Italian",[1]; [19],20
same,"Plant response rating, Soybean",[2]; [13],90
same,"Plant response rating, Soybean",[2]; [14],95
same,"Plant response rating, Soybean",[2]; [15],95
same,"Plant response rating, Soybean",[2]; [16],95
same,"Plant response rating, Soybean",[2]; [18],0
same,"Plant response rating, Soybean",[2]; [19],0
same,"Plant response rating, Morningglory",[3]; [14],50
same,"Plant response rating, Morningglory",[3]; [15],80
same,"Plant response rating, Morningglory",[3]; [16],80
same,"Plant response rating, Morningglory",[3]; [18],0
same,"Plant response rating, Morningglory",[3]; [19],55
same,"Plant response rating, Wheat",[4]; [13],0
same,"Plant response rating, Wheat",[4]; [14],5
same,"Plant response rating, Wheat",[4]; [15],10
same,"Plant response rating, Wheat",[4]; [16],60
same,"Plant response rating, Wheat",[4]; [17],0
same,"Plant response rating, Wheat",[4]; [18],0
same,"Plant response rating, Wheat",[4]; [19],0
same,"Plant response rating, Cocklebur",[5]; [13],85
same,"Plant response rating, Cocklebur",[5]; [20],75
same,"Plant response rating, Cocklebur",[5]; [14],85
same,"Plant response rating, Cocklebur",[5]; [15],90
same,"Plant response rating, Cocklebur",[5]; [16],100
same,"Plant response rating, Cocklebur",[5]; [17],0
same,"Plant response rating, Cocklebur",[5]; [18],0
same,"Plant response rating, Cocklebur",[5]; [19],10
same,"Plant response rating, Kochia",[6]; [20],98
same,"Plant response rating, Kochia",[6]; [14],10
same,"Plant response rating, Kochia",[6]; [15],45
same,"Plant response rating, Kochia",[6]; [16],75
same,"Plant response rating, Kochia",[6]; [17],0
same,"Plant response rating, Kochia",[6]; [18],45
same,"Plant response rating, Kochia",[6]; [19],60
same,"Plant response rating, Cupgrass, Woolly",[7]; [13],75
same,"Plant response rating, Cupgrass, Woolly",[7]; [20],85
same,"Plant response rating, Cupgrass, Woolly",[7]; [14],75
same,"Plant response rating, Cupgrass, Woolly",[7]; [15],90
same,"Plant response rating, Cupgrass, Woolly",[7]; [16],95
same,"Plant response rating, Cupgrass, Woolly",[7]; [17],10
same,"Plant response rating, Cupgrass, Woolly",[7]; [18],65
same,"Plant response rating, Cupgrass, Woolly",[7]; [19],65
same,"Plant response rating, Nutsedge, Yellow",[8]; [13],45
same,"Plant response rating, Nutsedge, Yellow",[8]; [14],60
same,"Plant response rating, Nutsedge, Yellow",[8]; [15],70
same,"Plant response rating, Nutsedge, Yellow",[8]; [16],75
same,"Plant response rating, Nutsedge, Yellow",[8]; [17],55
same,"Plant response rating, Nutsedge, Yellow",[8]; [18],65
same,"Plant response rating, Nutsedge, Yellow",[8]; [19],85
same,"Plant response rating, Crabgrass, Large",[9]; [13],80
same,"Plant response rating, Crabgrass, Large",[9]; [20],98
same,"Plant response rating, Crabgrass, Large",[9]; [14],85
same,"Plant response rating, Crabgrass, Large",[9]; [15],95
same,"Plant response rating, Crabgrass, Large",[9]; [16],100
same,"Plant response rating, Crabgrass, Large",[9]; [17],55
same,"Plant response rating, Crabgrass, Large",[9]; [18],95
same,"Plant response rating, Crabgrass, Large",[9]; [19],98
same,"Plant response rating, Velvetleaf",[10]; [13],85
same,"Plant response rating, Velvetleaf",[10]; [14],90
same,"Plant response rating, Velvetleaf",[10]; [15],95
same,"Plant response rating, Velvetleaf",[10]; [16],98
same,"Plant response rating, Velvetleaf",[10]; [17],75
same,"Plant response rating, Velvetleaf",[10]; [18],90
same,"Plant response rating, Velvetleaf",[10]; [19],100
same,"Plant response rating, Bermudagrass",[11]; [20],98
same,"Plant response rating, Bermudagrass",[11]; [14],90
same,"Plant response rating, Bermudagrass",[11]; [15],98
same,"Plant response rating, Bermudagrass",[11]; [16],100
same,"Plant response rating, Bermudagrass",[11]; [17],10
same,"Plant response rating, Bermudagrass",[11]; [18],98
same,"Plant response rating, Bermudagrass",[11]; [19],98
same,"Plant response rating, Bromegrass, Downy",[12]; [13],5
same,"Plant response rating, Bromegrass, Downy",[12]; [20],0
same,"Plant response rating, Bromegrass, Downy",[12]; [14],30
same,"Plant response rating, Bromegrass, Downy",[12]; [15],35
same,"Plant response rating, Bromegrass, Downy",[12]; [16],45
same,"Plant response rating, Bromegrass, Downy",[12]; [17],0
same,"Plant response rating, Bromegrass, Downy",[12]; [18],0
same,"Plant response rating, Bromegrass, Downy",[12]; [19],0
